Counter-ions that a name gives are not always drawn.
The compounds below were run against human LOXL2 (Homo sapiens (Human), UniProt Q9Y4K0) (assay: Human LOXL2 Amine Oxidase Activity Assay (Amplex Red fluorescence)). Details: concentrated conditioned media from CHO cells stably expressing human LOXL2; 2 h at 37° C. preincubation; DAP substrate; read-out: IC50.
Type: biochemical

human LOXL2, sequence (Q9Y4K0 26-774): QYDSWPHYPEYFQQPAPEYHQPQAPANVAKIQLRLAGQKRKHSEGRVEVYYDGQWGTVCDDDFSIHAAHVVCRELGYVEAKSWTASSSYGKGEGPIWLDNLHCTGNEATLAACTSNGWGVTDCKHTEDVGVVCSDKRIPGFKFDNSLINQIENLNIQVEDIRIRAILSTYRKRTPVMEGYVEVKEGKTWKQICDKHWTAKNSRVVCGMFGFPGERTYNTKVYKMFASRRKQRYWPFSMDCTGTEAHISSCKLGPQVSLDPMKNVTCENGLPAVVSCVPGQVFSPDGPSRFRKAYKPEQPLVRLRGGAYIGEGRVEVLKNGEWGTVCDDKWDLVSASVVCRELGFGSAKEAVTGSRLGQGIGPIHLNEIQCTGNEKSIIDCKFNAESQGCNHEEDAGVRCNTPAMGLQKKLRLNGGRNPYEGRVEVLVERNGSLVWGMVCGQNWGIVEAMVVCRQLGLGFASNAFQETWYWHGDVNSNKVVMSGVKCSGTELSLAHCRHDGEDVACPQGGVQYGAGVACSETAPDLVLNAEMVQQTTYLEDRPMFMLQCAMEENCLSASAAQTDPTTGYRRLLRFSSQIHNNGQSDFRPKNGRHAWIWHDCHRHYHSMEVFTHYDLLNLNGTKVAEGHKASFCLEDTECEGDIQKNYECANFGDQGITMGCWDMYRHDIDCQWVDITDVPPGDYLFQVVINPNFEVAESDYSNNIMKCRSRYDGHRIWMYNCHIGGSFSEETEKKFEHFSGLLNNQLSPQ

| SMILES | IC50 [nM] |
| --- | --- |
| NCc1ccnc(Oc2ccc(C(=O)N3CCC(O)(C(F)(F)F)C3)cc2)c1 (racemic) [Compound 1-12, Racemic-4-((4-aminomethyl)pyridin-2-yl)oxy)phenyl)(3-hydroxy-3-(trifluoromethyl)pyrrolidin-1-yl)methanone hydrochloride] | < 300 |
| NCc1ccnc(Oc2cccc(C(=O)NCc3ccc(C(F)(F)F)cc3)c2)c1 [Compound 1-31, 3-((4-(Aminomethyl)pyridin-2-yl)oxy)-N-(4-(trifluoromethyl)benzyl)benzamide hydrochloride] | < 300 |
| NCc1ccnc(Oc2cccc(C(=O)Nc3ccc(F)cc3)c2)c1 [Compound 1-23, 3-((4-Aminomethyl)pyridin-2-yl)oxy)-N-(4-fluorophenyl)benzamide hydrochloride] | < 300 |
| NCc1ccnc(Oc2cccc3c2CCN3c2nc3ccc(F)cc3s2)c1 [Compound 2-33, (2-((1-(6-Fluorobenzo[d]thiazol-2-yl)indolin-4-yl)oxy)pyridin-4-yl)methanamine hydrochloride] | < 300 |
| NCc1ccnc(Oc2cccc(C(=O)Nc3ccc(C(=O)O)cc3)c2)c1 [Compound 1-29, 4-(3-((4-(Aminomethyl)pyridin-2-yl)oxy)benzamido)benzoic acid hydrochloride] | < 300 |
| NCc1ccnc(Oc2cccc(C(=O)NCc3ccccc3)c2)c1 [Compound 1-18, 3-((4-Aminomethyl)pyridin-2-yl)oxy)-N-benzylbenzamide hydrochloride] | < 300 |
| NCc1ccnc(Oc2cccc(C(=O)NCc3ccc(C(=O)O)cc3)c2)c1 [Compound 1-34, 4-((3-((4-Aminomethyl)pyridin-2-yl)oxy)benzamido)methyl)benzoic acid hydrochloride] | < 300 |
| NCc1ccnc(-c2ccc(F)cc2)c1 [Compound 2-4, (2-(4-Fluorophenyl)pyridin-4-yl)methanamine] | < 300 |

— patent US11358936B2, “Lysyl oxidase-like 2 inhibitors and uses thereof” (PharmAkea, Inc., priority 2015, dated 2022)
